These results are taken from ChEMBL document CHEMBL1141058, “Squaric monoamide monoester as a new class of reactive immunization hapten for catalytic antibodies” (Bioorg Med Chem Lett, 2005).

In assay [1] the test system is Monoclonal antibody (mAb) 2D4. Put plainly: Ratio of reaction constant of paraoxon hydrolysis catalysed by monoclonal antibody 2D4 to that Michaelis-Menten's constant.
Assay [2] relates to Monoclonal antibody (mAb) 3C8. Kind of assay: Reaction constant of paraoxon hydrolysis catalyse by monoclonal antibody, 3C8 determined in 50 mM bicine with 50 mM NaCl, pH 8.0, 5% DMSO cosolvent at 23 degree C.
The subject of assay [3] is Monoclonal antibody (mAb) 3C8. Kind of assay: Ratio of reaction constant of paraoxon hydrolysis catalysed by monoclonal antibody 3C8 to that Michaelis-Menten's constant.
In assay [4] the test system is Monoclonal antibody (mAb) 2D4. Put plainly: Ratio of reaction constant of paraoxon hydrolysis catalysed by monoclonal antibody 2D4 to that of uncatalysed.
In assay [5] the test system is Monoclonal antibody (mAb) 3C8. Kind of assay: Michaelis-Menten constant of monoclonal antibody, 3C8 for paraoxon hydrolysis determined in 50 mM bicine with 50 mM NaCl, pH 8.0, 5% DMSO cosolvent at 23 degree C.
Assay [6] concerns Monoclonal antibody (mAb) 2D4. Put plainly: Michaelis-Menten's constant of monoclonal antibody, 2D4 for paraoxon hydrolysis determined in 50 mM bicine with 50 mM NaCl, pH 8.0, 5% DMSO cosolvent at 23 degree C.
In assay [7] the test system is Monoclonal antibody (mAb) 2D4. Put plainly: Reaction constant of paraoxon hydrolysis catalyse by monoclonal antibody, 2D4 determined in 50 mM bicine with 50 mM NaCl, pH 8.0, 5% DMSO cosolvent at 23 degree C.
Assay [8] has as its system Monoclonal antibody (mAb) 3C8. Put plainly: Ratio of reaction constant of paraoxon hydrolysis catalysed by monoclonal antibody 3C8 to that of uncatalysed.

The Km is the substrate concentration at which the rate is half of its maximum. For `CCOc1c(Nc2ccc(NC(=O)CCCC(=O)O)cc2)c(=O)c1=O`, the k cat/Km amounted to 0.0322 M⁻¹ s⁻¹ in assay [1] and 0.0262 M⁻¹ s⁻¹ in assay [3]. For the same compound, the k cat in assay [2] amounted to 3.38e-05 s⁻¹; in assay [7], 3.8e-05 s⁻¹. In addition, the figures for the k cat/Kuncat in assay [4] and in assay [8] were 2310 and 2060, respectively. Moreover, the Km was 1290 µM in assay [5] and 1180 µM in assay [6].
